What all share (assay type): biochemical, horseradish
Experiment [1] concerns the target T1, horse radish peroxidase (Armoracia rusticana, UniProt P00433).
T1 sequence (P00433 31-353): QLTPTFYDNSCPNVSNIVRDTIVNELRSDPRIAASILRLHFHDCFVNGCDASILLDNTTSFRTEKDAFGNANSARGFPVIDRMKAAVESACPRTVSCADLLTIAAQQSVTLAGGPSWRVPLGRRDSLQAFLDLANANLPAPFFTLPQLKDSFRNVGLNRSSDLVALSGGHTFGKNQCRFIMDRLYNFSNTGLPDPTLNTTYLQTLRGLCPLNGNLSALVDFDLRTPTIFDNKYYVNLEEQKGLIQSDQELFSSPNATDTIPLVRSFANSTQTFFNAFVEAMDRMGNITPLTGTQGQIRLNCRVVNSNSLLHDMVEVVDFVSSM
Kind of experiment: change in fluorescence of substrate with HRP and hydrogen peroxide over 60 seconds. The note with it: substrate 800 μl, H2O2 100 μl, 60 second interval, pH 8. Here is the method: (§1) In the next assay, the fluorogenic precursor of Example I was employed. […] An assay solution was prepared comprising the […] compound of Example I, hydrogen peroxide, horse radish peroxidase, and buffer (0.1M phosphate, pH 8.0) and the change in fluorescence in the solution determined over a 60 second interval. The substrate solution which was added was 3.9 mg/100 ml concentration in buffer, the hydrogen peroxide was 9.×10^-4 M, the HRP solution was 6.6 ng/ml containing 0.5 mgBSA/ml and the buffer was 0.1M phosphate, pH 8. The following table indicates the results.

Experiment [2] deals with horse radish peroxidase. The experiment is described as above. The note with it: HRP solution (6.6 ng/ml) 0 μl, substrate 800 μl, H2O2 100 μl, buffer 100 μl; 60 second interval, pH 8. Here is the method:
as §1

The target of experiment [3] is T2, HRP (Armoracia rusticana, UniProt P00433).
T2 sequence (P00433 31-353): T1 sequence (P00433 31-353)
Kind of experiment: qualitative test as HRP substrate (generation of a fluorescent product with HRP and H2O2). The note with it: with HRP and H2O2 in aqueous solution, result in words. Here is the method:
The sample was filtered through a sintered glass filter to obtain a clear solution, the solvent evaporated and the residue dissolved in 5 ml DMF. The solution was then evaporated to dryness, dissolved in 1 ml. DMF, followed by a dilution with 4 ml buffer and an assay carried out as described previously employing 100 microliters of the substrate.

Experiment [4] concerns the target T3, HRP-antiPRP conjugate (Armoracia rusticana, UniProt P00433).
T3 construct: purchased Sigma
T3 sequence (P00433 31-338 limits assumed): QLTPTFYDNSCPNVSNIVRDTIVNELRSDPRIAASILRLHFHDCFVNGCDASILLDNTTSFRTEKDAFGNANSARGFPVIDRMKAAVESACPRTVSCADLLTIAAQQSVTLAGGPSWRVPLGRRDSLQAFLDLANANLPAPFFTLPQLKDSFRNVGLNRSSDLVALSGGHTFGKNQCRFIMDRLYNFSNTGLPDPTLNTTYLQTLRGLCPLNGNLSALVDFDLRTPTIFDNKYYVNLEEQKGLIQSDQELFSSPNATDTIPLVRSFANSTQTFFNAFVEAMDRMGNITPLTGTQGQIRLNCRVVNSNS
Kind of experiment: microtiter plate PRP immunoassay with HRP-antiPRP conjugate and fluorogenic substrate. The note with it: 10 minute incubation at 37° C.; for Fluorescence with PRP: 50 ng/ml PRP; for Fluorescence without PRP: PBS buffer instead of PRP. Here is the method: Microtiter plate wells were coated with a solution (250 μl/well) of an amine modified glucose oxidase (1 to 190 dilution, 7.6 mg/ml stock solution) and antibodies to polyribosephosphate (1:2000 dilution in 60 mM carbonate buffer, pH 9.6). After standing overnight, the wells were washed with PBS containing 0.05% Tween 20 (W/V).
A stock solution was prepared of the fluorogenic substrate of Example II. A 3.8 mg/10 ml DMF solution (1.22 mM) was diluted 1:10 with PBS buffer immediately before use. A substrate mixture was prepared containing 500 μl of the above stock solution, 694 μl of 1.8M glucose, 400 μl of a stock catalase solution and the volume brought to 2 ml with PBS buffer. The stock catalase solution (3.1-4 mg/ml) was prepared by dialysing catalase (C-100 Sigma) in PBS pH 7.2.
The following protocol was then employed for the assay. Into each microtiter well coated with amino glucose oxidase (see copending application serial No. 398,505, filed July 15, 1982) and antiPRP was added 100 μl of 50 ng/ml PRP or 100 μl of PBS buffer (pH 7.2) and the mixture incubated for one hour at room temperature. At the end of this time, 50 μl of HRP-antiPRP conjugate was added followed by another one hour incubation. At the end of this time, 100 μl of a substrate mixture was added, followed by a 10 minute incubation at 37° C. with shaking, after which time 200 μl of the incubation mixture was diluted with 1.8 ml, of 0.1M phosphate buffer (pH 8.0) and the fluorescence read.

The mark [5] stands for this setting: HRP-antiPRP dilution 0 (no conjugate).

Data on six molecules can be found in patent US4857455A, “Method for the determination of peroxidase using fluorogenic substrates” (Syntex (U.S.A) Inc., priority 1982, dated 1989).

Where “and” joins values, the source holds several entries; their conditions need not be identical. Equal entries are not always repeated.

With `Nc1ccc(Oc2ccc3cc(C(=O)O)c(=O)oc3c2)cc1` [Example I, 3-carboxy-7-(4'-aminophenoxy)coumarin], the ΔF in experiment [1] (HRP solution (6.6 ng/ml) 20 μl, buffer 80 μl) was 11.0; in experiment [1] (HRP solution (6.6 ng/ml) 50 μl, buffer 50 μl), 16.2; in experiment [1] (HRP solution (6.6 ng/ml) 100 μl, buffer 0 μl) it was 29.7 and 30.4; in experiment [2], 6.6.

Consider `Cc1cc(Oc2ccc3cc(C(=O)N[C@H]4C(O)O[C@H](CO)[C@@H](O)[C@@H]4O)c(=O)oc3c2)ccc1N` (stereo partly shown) [Example V, glucosamine derivative of 3-carboxy-7-(3'-methyl-4'aminophenoxy)coumarin], for which, in experiment [3], the “activity as HRP substrate” value is on record as “active as an HRP substrate”.

Take `Cc1cc(Oc2ccc3cc(C(=O)O)c(=O)oc3c2)ccc1N` [Example II, 3-carboxy-7-(3'-methyl-4'-aminophenoxy)coumarin]: the “Fluorescence with PRP” value in experiment [4] (setting [5]) was 2.2; in experiment [4] (HRP-antiPRP dilution 1:80), 79.5; in experiment [4] (HRP-antiPRP dilution 1:320) it was 31.8 and 29.6 and 32.5; in experiment [4] (HRP-antiPRP dilution 1:1280) it was 13.8. The “Fluorescence without PRP” value was 2.4 in experiment [4] (setting [5]); 67.1 in experiment [4] (HRP-antiPRP dilution 1:80); 11.0 and 14.2 and 13.4 in experiment [4] (HRP-antiPRP dilution 1:320); 5.2 in experiment [4] (HRP-antiPRP dilution 1:1280).

Take `Cc1cc(Oc2ccc3cc(C(=O)NCCS(=O)(=O)O)c(=O)oc3c2)ccc1N` [Example IV, taurine derivative of 3-carboxy-7-(3'-methyl-4'-aminophenoxy)coumarin]: the “activity as HRP substrate” value in experiment [3] is “useful as a HRP substrate”.

In the case of `Cc1cc(Oc2ccc3cc(C(=O)O)c(=O)oc3c2)cc(Br)c1N` [Example VI, 3-carboxy-7-(3'-methyl-4'-amino-5'-bromophenoxy)coumarin], in experiment [3], the “activity as HRP substrate” value is listed as “active HRP substrate”.

For the molecule `O=C(O)CNc1ccc(Oc2ccc3cc(C(=O)O)c(=O)oc3c2)cc1` [Example III, 3-carboxy-7-(N-carboxymethyl 4'-aminophenoxy)coumarin], the “activity as HRP substrate” value in experiment [3] is reported as “useful as an HRP substrate”.
